Patent EP4417602A1, “SUBSTITUTED PYRAZOLE CARBOXAMIDES, SALTS THEREOF AND THEIR USE AS HERBICIDALLY ACTIVE SUBSTANCES” (Bayer AG, priority 2023, dated 2024)

Experiments:
STEME = experiment: A. Herbicidal pre-emergence action on harmful plants (Tables A); type: in vivo, Stellaria media; conditions: visual grading after ca. 3 weeks vs untreated controls, 100% = plants have died off, 0% = as control plants
Summary of the method: (§1)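 Values are visual percent damage relative to untreated controls, scored ca. 3 weeks after the compound was sprayed on the covering soil of sown pots (sandy loam) at rates up to 1280 g/ha, formulated as WP or EC with 0.5% additive.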

VIOTR = experiment: C. Herbicidal pre-emergence action, weed and crop plants (Tables C); type: in vivo, Viola tricolor; conditions: application rate 320 g/ha; Table C12a
Text: (§2) Seeds of mono- and dicotyledonous weed plants and crop plants were sown, in plastic or organic planting pots, in sandy loam and covered with soil. The compounds according to the invention, formulated in the form of wettable powders (WP) or as emulsifiable concentrates (EC), were applied to the surface of the covering soil as aqueous suspension or emulsion, with the addition of 0.5% of an additive, at an application rate of 6001 of water/ha (converted). Following treatment, the pots were placed in a greenhouse and kept under optimum growth conditions for the test plants. The visual grading of the damage to the test plants was carried out after ca. 3 weeks in comparison to untreated controls (herbicidal effect in percent (%): 100% effect = plants have died off, 0% effect = as control plants). Tables C1 to C12 below show the effects of selected compounds of the general formula (I) according to table 1 on various harmful plants and an application rate corresponding to 320 g/ha or below obtained by the experimental procedure mentioned above. Table C1: pre-emergence activity at 320g/ha against KCHSC in %

GLXMA [1] = experiment: F. Post-emergence effects on crop plants (Tables F); type: in vivo, Glycine max; conditions: application rate 320 g/ha, crop plant
Text: (§3) Seeds of mono- and dicotyledonous weed plants and crop plants were sown, in plastic or organic planting pots, in sandy loam, covered with soil and grown in a greenhouse under controlled growth conditions. 2 to 3 weeks after sowing, the test plants were sprayed in the single-leaf stage. The compounds according to the invention, formulated in form of wettable powders (WP) or as emulsifiable concentrates (EC), were sprayed onto the green plant parts as aqueous suspension or emulsion, with the addition of 0.5% of an additive, at an application rate of 6001 of water/ha (converted). The test plants were placed in the greenhouse for ca. 3 weeks under optimum growth conditions, and then the effect of the preparations was assessed visually in comparison with untreated controls (herbicidal effect in percent (%): 100% effect = plants have died off, 0% effect = as control plants). Tables F1 to F5 below show the effects of selected compounds of the general formula (I) according to table 1 on various crop plants and an application rate corresponding to 320 g/ha or below obtained by the experimental procedure mentioned above. Table […]: post-emergence activity at 320g/ha against ZEAMX in %

POAAN [2] = experiment: A. Herbicidal pre-emergence action on harmful plants (Tables A); type: in vivo, Poa annua
Summary of the method: as §1

DIGSA [3] = experiment: as above; type: in vivo, Digitaria sanguinalis
Summary of the method: as §1

BRSNW [4] = experiment: D. Pre-emergence effects on crop plants (Tables D); type: in vivo, Brassica napus; conditions: application rate 80 g/ha, crop plant
Text: (§4) Seeds of mono- and dicotyledonous weed plants and crop plants were sown, in plastic or organic planting pots, in sandy loam and covered with soil. The compounds according to the invention, formulated in the form of wettable powders (WP) or as emulsifiable concentrates (EC), were applied to the surface of the covering soil as aqueous suspension or emulsion, with the addition of 0.5% of an additive, at an application rate of 6001 of water/ha (converted).
(§5) Following treatment, the pots were placed in a greenhouse and kept under optimum growth conditions for the test plants. The visual grading of the damage to the test plants was carried out after ca. 3 weeks in comparison to untreated controls (herbicidal effect in percent (%): 100% effect = plants have died off, 0% effect = as control plants).
(§6) Tables D1 to D5 below show the effects of various compounds of the general formula (I) according to Table 1 on various crop plants and an application rate corresponding to 320 g/ha or below obtained by the experimental procedure mentioned above in Biological Examples, Section C. Table D1a: pre-emergence activity at 320g/ha against ZEAMX in %

ALOMY [5] = experiment: C. Herbicidal pre-emergence action, weed and crop plants (Tables C); type: in vivo, Alopecurus myosuroides; conditions: application rate 320 g/ha; Table C2a
Text: as §2

MATIN [6] = experiment: A. Herbicidal pre-emergence action on harmful plants (Tables A); type: in vivo, Matricaria inodora; conditions: application rate 1280 g/ha; visual grading after ca. 3 weeks vs untreated controls; 100% = plants have died off, 0% = as control plants
Summary of the method: as §1

ALOMY [7] = experiment: as above; type: in vivo, Alopecurus myosuroides; conditions: application rate 1280 g/ha; Table A9a
Summary of the method: as §1

ECHCG [8] = experiment: C. Herbicidal pre-emergence action, weed and crop plants (Tables C); type: in vivo, Echinochloa crus-galli; conditions: application rate 320 g/ha; Table C6a
Text: as §2

GLXMA [9] = experiment: D. Pre-emergence effects on crop plants (Tables D); type: in vivo, Glycine max; conditions: crop plant; application rate 80 g/ha; Table D4b
Text: as §4, §5, §6

ZEAMX [10] = experiment: D. Pre-emergence effects on crop plants (Tables D); type: in vivo, Zea mays; conditions: crop plant; application rate 80 g/ha; Table D1b
Text: as §4, §5, §6

ECHCG [11] = experiment: A. Herbicidal pre-emergence action on harmful plants (Tables A); type: in vivo, Echinochloa crus-galli; conditions: visual grading after ca. 3 weeks vs untreated controls, 100% = plants have died off, 0% = as control plants
Summary of the method: as §1

LOLRI [12] = experiment: as above; type: in vivo, Lolium rigidum; conditions: visual grading after ca. 3 weeks vs untreated controls, 100% = plants have died off, 0% = as control plants
Summary of the method: as §1

MATIN [13] = experiment: C. Herbicidal pre-emergence action, weed and crop plants (Tables C); type: in vivo, Matricaria inodora; conditions: application rate 320 g/ha; Table C8
Text: as §2

TRZAS = experiment: F. Post-emergence effects on crop plants (Tables F); type: in vivo, Triticum aestivum; conditions: application rate 80 g/ha, crop plant
Text: as §3

BRSNW [14] = experiment: as above; type: in vivo, Brassica napus; conditions: application rate 80 g/ha, crop plant
Text: as §3

SETVI [15] = experiment: A. Herbicidal pre-emergence action on harmful plants (Tables A); type: in vivo, Setaria viridis; conditions: visual grading after ca. 3 weeks vs untreated controls, 100% = plants have died off, 0% = as control plants
Summary of the method: as §1

DIGSA [16] = experiment: C. Herbicidal pre-emergence action, weed and crop plants (Tables C); type: in vivo, Digitaria sanguinalis; conditions: application rate 320 g/ha; Table C5a
Text: as §2

ZEAMX [17] = experiment: F. Post-emergence effects on crop plants (Tables F); type: in vivo, Zea mays; conditions: crop plant
Text: as §3

SETVI [18] = experiment: B. Herbicidal post-emergence action on harmful plants (Tables B); type: in vivo, Setaria viridis; conditions: application rate 1280 g/ha; Table B5
Method: (§7) Seeds of mono- and dicotyledonous weed plants were placed in plastic pots in sandy loam soil (doubly sown with in each case one species of mono- or dicotyledonous weed plants per pot), covered with soil and cultivated in a greenhouse under controlled growth conditions. 2 to 3 weeks after sowing, the test plants were treated at the one-leaf stage. The compounds of the invention, formulated in the form of wettable powders (WP) or as emulsion concentrates (EC), were applied onto the green parts of the plants as aqueous suspension or emulsion with addition of 0.5% additive at a water application rate of 600 liters per hectare (converted). After the test plants had been kept in the greenhouse under optimum growth conditions for about 3 weeks, the activity of the preparations was rated visually in comparison to untreated controls. For example, 100% activity = the plants have died, 0% activity = like control plants. Tables B1 to B12, below, show the effects of selected compounds of the general formula (I) according to table 1 on various harmful plants and an application rate corresponding to 1280 g/ha or below obtained by the experimental procedure mentioned above. Table B1a: post-emergence activity at 1280g/ha against ABUTH in %

LOLRI [19] = experiment: as above; type: in vivo, Lolium rigidum; conditions: application rate 1280 g/ha; Table B3
Method: as §7

POAAN [20] = experiment: as above; type: in vivo, Poa annua; conditions: application rate 1280 g/ha; Table B7a
Summary of the method: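 Greenhouse weeds grown in sandy loam were sprayed post-emergence at the one-leaf stage, 2-3 weeks after sowing. Compounds were applied as WP or EC in water with 0.5% additive at 600 L/ha, at 1280 g/ha or below. Visual damage was rated after about 3 weeks versus untreated plants (0-100%).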

[21] = application rate 80 g/ha, Table A7c
[22] = application rate 320 g/ha, Table A7b
[23] = application rate 1280 g/ha, visual grading after ca. 3 weeks vs untreated controls, 100% = plants have died off, 0% = as control plants
[24] = application rate 1280 g/ha, Table A12a

Structure (SMILES)	pre-emergence activity against STEME (STEME; application rate 1280 g/ha)	pre-emergence activity against POAAN (POAAN [2]; [21])	pre-emergence activity against POAAN (POAAN [2]; [22])	pre-emergence activity against POAAN (POAAN [2]; [23])	pre-emergence activity against DIGSA (DIGSA [3]; [24])	pre-emergence activity against MATIN (MATIN [6])	pre-emergence activity against ECHCG (ECHCG [11]; application rate 320 g/ha)	pre-emergence activity against ECHCG (ECHCG [11]; application rate 1280 g/ha)	pre-emergence activity against LOLRI (LOLRI [12]; application rate 320 g/ha)	pre-emergence activity against LOLRI (LOLRI [12]; application rate 1280 g/ha)	pre-emergence activity against SETVI (SETVI [15]; application rate 1280 g/ha)	also measured
Cn1cc(C(=O)N2CCCC2Cc2ccccc2F)c(COCC(F)F)n1 (racemic) [Example I-044]	90%	90%	100%	100%	100%	90%	90%	100%	90%	90%	90%	pre-emergence activity against VIOTR (VIOTR): 90%; post-emergence activity against GLXMA in % (GLXMA [1]): 0%; pre-emergence activity against DIGSA (DIGSA [3]; application rate 320 g/ha, Table A12b): 90%; pre-emergence activity against BRSNW in % (BRSNW [4]): 0%; pre-emergence activity against ALOMY (ALOMY [5]): 90%; pre-emergence activity against ALOMY (ALOMY [7]): 90%; pre-emergence activity against ECHCG (ECHCG [8]): 90%; pre-emergence activity against GLXMA (GLXMA [9]): 0%; pre-emergence activity against ZEAMX (ZEAMX [10]): 0%; pre-emergence activity against MATIN (MATIN [13]): 90%; post-emergence activity against TRZAS in % (TRZAS): 0%; post-emergence activity against BRSNW in % (BRSNW [14]): 0%; pre-emergence activity against DIGSA (DIGSA [16]): 90%; post-emergence activity against ZEAMX in % (ZEAMX [17]; application rate 80 g/ha): 0%; post-emergence activity against ZEAMX in % (ZEAMX [17]; application rate 320 g/ha): 0%
COCc1c(C(=O)N2CCCC2Cc2c(F)cccc2F)cnn1C (racemic) [Example I-124]	90%	90%	100%	100%	90%	100%	90%	100%	90%	100%	90%	pre-emergence activity against STEME (STEME; application rate 320 g/ha): 90%; post-emergence activity against SETVI (SETVI [18]): 90%; post-emergence activity against LOLRI (LOLRI [19]): 90%; post-emergence activity against POAAN (POAAN [20]): 90%; pre-emergence activity against SETVI (SETVI [15]; application rate 320 g/ha): 90%
